Source: patent publication US8765730B2 (Hoffmann-La Roche Inc, priority 2010, dated 2014)

These compounds were tested against T1, human GPBAR1 receptor (Homo sapiens, UniProt Q8TDU6) (assay: functional cAMP assay in CHO-dhfr(minus) cells expressing human GPBAR1 receptors). Details: human EC50, functional cAMP assay, 30 min at 30° C.
T1 construct: expressed in transfected cells
T1 sequence (Q8TDU6 1-330): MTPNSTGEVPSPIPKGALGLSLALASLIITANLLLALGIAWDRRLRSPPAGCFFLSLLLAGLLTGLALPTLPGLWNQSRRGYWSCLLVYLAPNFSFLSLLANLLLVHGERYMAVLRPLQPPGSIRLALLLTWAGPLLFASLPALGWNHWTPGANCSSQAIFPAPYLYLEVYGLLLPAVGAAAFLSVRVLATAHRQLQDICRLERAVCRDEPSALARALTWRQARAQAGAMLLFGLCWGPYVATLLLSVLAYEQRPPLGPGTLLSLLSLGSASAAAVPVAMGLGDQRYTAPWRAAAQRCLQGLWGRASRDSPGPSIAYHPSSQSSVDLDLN
Assay type: cell-based
How it was run: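 Agonist cAMP read-out: stable GPBAR1 CHO-dhfr− clone, 30 min compound exposure at 30° C following 30 min IBMX (1 mM) preincubation in Krebs Ringer bicarbonate. Time-resolved energy-transfer detection gives EC50; parental CHO cells serve as counter-screen.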

SMILES	EC50 [nM]
Cc1cc(/C(C[C@H](c2ccc(N3CCC(C(=O)O)CC3)cc2)c2ccc(Cl)cc2C)=N/O)ccn1 [Example 284, 1-{4-[(R)-1-(4-Chloro-2-methyl-phenyl)-3-[(E)-hydroxyimino]-3-(2-methyl-pyridin-4-yl)-propyl]-phenyl}-piperidine-4-carboxylic acid]	2
Cc1cc(/C(C[C@@H](c2ccc(N3CCC(C(=O)O)CC3)cc2)c2ccc(Cl)cc2C)=N/O)ccn1 [Example 285, 1-{4-[(S)-1-(4-Chloro-2-methyl-phenyl)-3-[(E)-hydroxyimino]-3-(2-methyl-pyridin-4-yl)-propyl]-phenyl}-piperidine-4-carboxylic acid]	4
CCOC(=O)C(C(=O)OCC)c1ccc([C@H](C/C(=N\O)c2ccnc(C)c2)c2ccccc2C)cc1 [Example 286, 2-{4-[(S)-3-[(E)-Hydroxyimino]-3-(2-methyl-pyridin-4-yl)-1-o-tolyl-propyl]-phenyl}-malonic acid diethyl ester]	2410
C#Cc1ccc([C@@H](CC(=NO)c2ccnc(C)c2)c2ccccc2C)cc1 [Example 287, (R)-3-(4-Ethynyl-phenyl)-1-(2-methyl-pyridin-4-yl)-3-o-tolyl-propan-1-one oxime]	2
Cc1cc(/C(C[C@H](c2ccc(CC(=O)NCCO)cc2)c2ccccc2C)=N/O)ccn1 [Example 289, N-(2-Hydroxy-ethyl)-2-{4-[(R)-3-[(E)-hydroxyimino]-3-(2-methyl-pyridin-4-yl)-1-o-tolyl-propyl]-phenyl}-acetamide]	23
Cc1ccccc1[C@H](C/C(=N\O)c1ccnc(Cl)c1)c1ccc(-c2ccc(C(=O)O)cc2)cc1 [Example 290, 4′-{(R)-3-(2-Chloro-pyridin-4-yl)-3-[(E)-hydroxyimino]-1-o-tolyl-propyl}-biphenyl-4-carboxylic acid]	37
Cc1ccccc1[C@H](C/C(=N\O)c1ccnc(C(F)(F)F)c1)c1ccc(-c2ccc(C(=O)O)cc2)cc1 [Example 291, 4′-[(R)-3-[(E)-Hydroxyimino]-1-o-tolyl-3-(2-trifluoromethyl-pyridin-4-yl)-propyl]-biphenyl-4-carboxylic acid]	365
Cc1ccccc1[C@H](C/C(=N\O)c1cc(Cl)ncc1F)c1ccc(-c2ccc(C(=O)O)cc2)cc1 [Example 292, 4′-{(R)-3-(2-Chloro-5-fluoro-pyridin-4-yl)-3-[(E)-hydroxyimino]-1-o-tolyl-propyl}-biphenyl-4-carboxylic acid]	6
Cc1ccccc1[C@H](C/C(=N\O)c1cc(F)ncc1Cl)c1ccc(-c2ccc(C(=O)O)cc2)cc1 [Example 293, 4′-{(R)-3-(5-Chloro-2-fluoro-pyridin-4-yl)-3-[(E)-hydroxyimino]-1-o-tolyl-propyl}-biphenyl-4-carboxylic acid]	12
Cc1cc(/C(C[C@H](c2ccc(-c3ccc(C(=O)O)cc3)cc2)c2ccccc2C)=N/O)cc(C)n1 [Example 294, 4′-{(R)-3-(2,6-Dimethyl-pyridin-4-yl)-3-[(E)-hydroxyimino]-1-o-tolyl-propyl}-biphenyl-4-carboxylic acid]	21
Cc1cc(/C(C[C@@H](c2ccc(-c3ccc(C(=O)O)cc3)cc2)c2ccc(Cl)cc2C)=N/O)ccn1 [Example 296, 4′-[(S)-1-(4-Chloro-2-methyl-phenyl)-3-[(E)-hydroxyimino]-3-(2-methyl-pyridin-4-yl)-propyl]-biphenyl-4-carboxylic acid]	32
Cc1cc(/C(C[C@H](c2ccc(-c3ccc(C(=O)O)cc3)cc2)c2ccc(Cl)cc2C)=N/O)ccn1 [Example 297, 4′-[(R)-1-(4-Chloro-2-methyl-phenyl)-3-[(E)-hydroxyimino]-3-(2-methyl-pyridin-4-yl)-propyl]-biphenyl-4-carboxylic acid]	13
Cc1ccccc1[C@H](C/C(Cc1ccncc1)=N\O)c1ccc(-c2ccc(C(=O)O)cc2)cc1 [Example 298, 4′-{(R)-3-[(E)-Hydroxyimino]-4-pyridin-4-yl-1-o-tolyl-butyl}-biphenyl-4-carboxylic acid]	411
Cc1cc(/C(C[C@H](c2ccc(N3CCCC3=O)cc2)c2ccccc2C)=N/O)ccn1 [Example 299, 1-{4-[(R)-3-[(E)-Hydroxyimino]-3-(2-methyl-pyridin-4-yl)-1-o-tolyl-propyl]-phenyl}-pyrrolidin-2-one]	28
Cc1cc(/C(C[C@H](c2ccc(N[C@H]3C[C@@H](C(=O)O)C3)cc2)c2ccccc2C)=N/O)ccn1 [Example 300, 3-{4-[(R)-3-[(E)-Hydroxyimino]-3-(2-methyl-pyridin-4-yl)-1-o-tolyl-propyl]-phenylamino}-cyclobutanecarboxylic acid]	55
Cc1ccccc1C(C/C(=N\O)c1ccc(=O)n(C)c1)c1ccc(C(=O)NC(C)(C)CO)cc1 (stereo not drawn) [Example 303, (E)-N-(1-Hydroxy-2-methylpropan-2-yl)-4-(3-(hydroxyimino)-3-(1-methyl-6-oxo-1,6-dihydropyridin-3-yl)-1-o-tolylpropyl)benzamide]	816
Cc1ccccc1C(C/C(=N\O)c1ccc(=O)n(C)c1)c1ccc(C(=O)NC(CO)CO)cc1 (stereo not drawn) [Example 304, (E)-N-(1,3-Dihydroxypropan-2-yl)-4-(3-(hydroxyimino)-3-(1-methyl-6-oxo-1,6-dihydropyridin-3-yl)-1-o-tolylpropyl)benzamide]	506
Cc1ccccc1C(C/C(=N\O)c1ccc(=O)n(C)c1)c1ccc(C(=O)N[C@@H](CO)C(C)C)cc1 (stereo partly drawn) [Example 305, N—((R)-1-hydroxy-3-methylbutan-2-yl)-4-((E)-3-(hydroxyimino)-3-(1-methyl-6-oxo-1,6-dihydropyridin-3-yl)-1-o-tolylpropyl)benzamide]	1630
Cc1ccccc1C(C/C(=N\O)c1ccc(=O)n(C)c1)c1ccc(C(=O)NC2(CO)CC2)cc1 (stereo not drawn) [Example 308, (E)-4-(3-(Hydroxyimino)-3-(1-methyl-6-oxo-1,6-dihydropyridin-3-yl)-1-o-tolylpropyl)-N-(1-(hydroxymethyl)cyclopropyl)benzamide]	592
Cc1ccccc1C(C/C(=N\O)c1ccc(=O)n(C)c1)c1ccc(C(=O)NCC(O)C(F)(F)F)cc1 (stereo not drawn) [Example 309, (E)-4-(3-(Hydroxyimino)-3-(1-methyl-6-oxo-1,6-dihydropyridin-3-yl)-1-o-tolylpropyl)-N-(3,3,3-trifluoro-2-hydroxypropyl)benzamide]	130

Other lines, results leading:

EC50 [nM]	SMILES
4100	Cc1ccccc1C(C/C(=N\O)c1ccc(=O)n(C)c1)c1ccc(C(=O)N[C@H](C)CO)cc1 (stereo partly drawn) [Example 301, 4-((E)-3-(Hydroxyimino)-3-(1-methyl-6-oxo-1,6-dihydropyridin-3-yl)-1-o-tolylpropyl)-N-((R)-1-hydroxypropan-2-yl)benzamide]
320	Cc1ccccc1C(C/C(=N\O)c1ccc(=O)n(C)c1)c1ccc(C(=O)N[C@@H](C)CO)cc1 (stereo partly drawn) [Example 302, 4-((E)-3-(Hydroxyimino)-3-(1-methyl-6-oxo-1,6-dihydropyridin-3-yl)-1-o-tolylpropyl)-N—((S)-1-hydroxypropan-2-yl)benzamide]
116	Cc1ccccc1C(C/C(=N\O)c1ccc(=O)n(C)c1)c1ccc(C(=O)NC[C@@H](O)CO)cc1 (stereo partly drawn) [Example 307, N—((R)-2,3-Dihydroxypropyl)-4-((E)-3-(hydroxyimino)-3-(1-methyl-6-oxo-1,6-dihydro-pyridin-3-yl)-1-o-tolylpropyl)benzamide]
153	Cc1ccccc1C(C/C(=N\O)c1ccc(=O)n(C)c1)c1ccc(C(=O)NCCS(C)(=O)=O)cc1 (stereo not drawn) [Example 310, (E)-4-(3-(Hydroxyimino)-3-(1-methyl-6-oxo-1,6-dihydropyridin-3-yl)-1-o-tolylpropyl)-N-(2-(methylsulfonyl)ethyl)benzamide]
253	Cn1cc(/C(CC(c2ccc(C(=O)NCCO)cc2)c2ccc(Cl)cc2F)=N/O)ccc1=O (stereo not drawn) [Example 311, 4-[1-(4-Chloro-2-fluoro-phenyl)-3-[(E)-hydroxyimino]-3-(1-methyl-6-oxo-1,6-dihydro-pyridin-3-yl)-propyl]-N-(2-hydroxy-ethyl)-benzamide]
326	Cn1cc(/C(CC(c2ccc(C(=O)NC[C@@H](O)CO)cc2)c2ccc(Cl)cc2F)=N/O)ccc1=O (stereo partly drawn) [Example 312, 4-((E)-1-(4-Chloro-2-fluorophenyl)-3-(hydroxyimino)-3-(1-methyl-6-oxo-1,6-dihydropyridin-3-yl)propyl)-N—((R)-2,3-dihydroxypropyl)benzamide]
266	Cn1cc(/C(CC(c2ccc(C(=O)NCCS(C)(=O)=O)cc2)c2ccc(Cl)cc2F)=N/O)ccc1=O (stereo not drawn) [Example 313, 4-[1-(4-Chloro-2-fluoro-phenyl)-3-[(E)-hydroxyimino]-3-(1-methyl-6-oxo-1,6-dihydro-pyridin-3-yl)-propyl]-N-(2-methanesulfonyl-ethyl)-benzamide]
84	Cn1cc(/C(CC(c2ccc(S(C)(=O)=O)cc2)c2ccc(Cl)cc2F)=N/O)ccc1=O (stereo not drawn) [Example 314, (E)-5-(3-(4-chloro-2-fluorophenyl)-1-(hydroxyimino)-3-(4-(methylsulfonyl)phenyl)propyl)-1-methylpyridin-2(1H)-one]
647	Cn1cc(/C(CC(c2cccc(S(C)(=O)=O)c2)c2ccc(Cl)cc2F)=N/O)ccc1=O (stereo not drawn) [Example 315, (E)-5-(3-(4-Chloro-2-fluorophenyl)-1-(hydroxyimino)-3-(3-(methylsulfonyl)phenyl)propyl)-1-methylpyridin-2(1H)-one]
319	CCS(=O)(=O)c1ccc(C(C/C(=N\O)c2ccc(=O)n(C)c2)c2ccc(Cl)cc2F)cc1 (stereo not drawn) [Example 316, (E)-5-(3-(4-Chloro-2-fluorophenyl)-3-(4-(ethylsulfonyl)phenyl)-1-(hydroxyimino)propyl)-1-methylpyridin-2(1H)-one]
